Patent publication USRE41149E1, “Optically active pyridonecarboxylic acid derivatives” (Daiichi Sankyo Company, Limited, priority 1988, dated 2010)
Converted amounts (≈) assume the structure as drawn.

Experiments:
Test in all cases: Antimicrobial activity (MIC), standard method of Nippon Kagakuryoho Gakkai
Format in all cases: cell-based
E. coli., NIHJ = system: E. coli., NIHJ
Description: (§1) Antimicrobial activity of the optically active compounds prepared in Examples was evaluated in accordance with the standard method specified by Nippon […], and results obtained are shown in Table 1 which precedes the claims herein in terms of minimum inhibitory concentration (MIC: […]).

Pr. vulgaris, 08601 = system: Pr. vulgaris, 08601
Description: as §1

Ps. aeruginosa, 32104 = conditions: for Antimicrobial activity (MIC): Ps. aeruginosa
Description: as §1

Ps. aeruginosa, 32121 = conditions: for Antimicrobial activity (MIC): Ps. aeruginosa
Description: as §1

S. aureus, 209 P = system: S. aureus, 209 P
Description: as §1

S. epidermidis, 56500 = conditions: for Antimicrobial activity (MIC): S. epidermidis
Description: as §1

Ser. marcescens, 10100 = conditions: for Antimicrobial activity (MIC): Ser. marcescens
Description: as §1

[1] = system: Str. faecalis, ATCC 19433; conditions: for Antimicrobial activity (MIC): Str. faecalis
Description: as §1

Antimicrobial activity (MIC) (E. coli., NIHJ) [µg/mL] | Antimicrobial activity (MIC) (Pr. vulgaris, 08601) [µg/mL] | Antimicrobial activity (MIC) (Ps. aeruginosa, 32104) [µg/mL] | Antimicrobial activity (MIC) (Ps. aeruginosa, 32121) [µg/mL] | Antimicrobial activity (MIC) (S. aureus, 209 P) [µg/mL] | Antimicrobial activity (MIC) (S. epidermidis, 56500) [µg/mL] | Antimicrobial activity (MIC) (Ser. marcescens, 10100) [µg/mL] | Antimicrobial activity (MIC) [1] [µg/mL] | MIC (Ps. aeruginosa, 32104; Pseudomonas aeruginosa, 32104, Ps. aeruginosa) [µg/mL] | MIC (Ps. aeruginosa, 32121; Pseudomonas aeruginosa, 32121, Ps. aeruginosa) [µg/mL] | MIC (S. aureus, 209 P; Staphylococcus aureus) [µg/mL] | MIC (S. epidermidis, 56500; Staphylococcus epidermidis, 56500, S. epidermidis) [µg/mL] | MIC (Ser. marcescens, 10100; Serratia marcescens, 10100, Ser. marcescens) [µg/mL] | MIC ([1]; Enterococcus faecalis, ATCC19433, Str. faecalis) [µg/mL] | Structure (SMILES)
0.10 | <0.1 | 0.39 | 0.10 | 0.10 | 0.39 | 0.20 | 1.57 | – | – | – | – | – | – | N[C@H]1CCN(c2cc3c(cc2F)c(=O)c(C(=O)O)cn3[C@@H]2C[C@@H]2F)C1 (relative stereo) [Compound 9a, 7-[3-(S)-Amino-1-pyrrolidinyl]-6-fluoro-1-(1,2-cis-2-fluorocyclopropyl)-4-oxo-1,4-dihydroquinoline-3-carboxylic acid]
<0.1 | <0.1 | 0.10 | <0.1 | <0.1 | 0.39 | 0.10 | 0.79 | – | – | – | – | – | – | N[C@H]1CCN(c2cc3c(cc2F)c(=O)c(C(=O)O)cn3[C@@H]2C[C@@H]2F)C1 (relative stereo) [Compound 9b, 7-[3-(S)-Amino-1-pyrrolidinyl]-6-fluoro-1-(1,2-cis-2-fluorocyclopropyl)-4-oxo-1,4-dihydroquinoline-3-carboxylic acid]
<0.1 | <0.1 | <0.1 | <0.1 | <0.1 | <0.1 | <0.1 | 0.20 | – | – | – | – | – | – | NC1CN(c2c(F)cc3c(=O)c(C(=O)O)cn([C@@H]4C[C@@H]4F)c3c2Cl)CC12CC2 (relative stereo) [Compound 26bb, (−)-7-(7-Amino-5-azaspiro[2.4]heptan-5-yl)-8-chloro-6-fluoro-1-(1,2-cis-2-fluoro-1-cylcopropyl)-1,4-dihydro-4-oxoquinoline-3-carboxylic acid]
<0.1 | <0.1 | 0.20 | 0.10 | <0.1 | 0.20 | 0.10 | 0.39 | – | – | – | – | – | – | C[C@H]1C[C@H](N)CN1c1nc2c(cc1F)c(=O)c(C(=O)O)cn2[C@@H]1C[C@@H]1F (relative stereo) [Compound 31b, 7-[4-(S)-Amino-2-(S)-methyl-1-pyrrolidinyl]-6-fluoro-1-(1,2-cis-2-fluoro-1-cyclopropyl)-4-oxo-1,4-dihydro-1,8-naphthyridine-3-carboxylic acid]
<0.1 | <0.1 | <0.1 | <0.1 | <0.1 | <0.1 | <0.1 | 0.10 | – | – | – | – | – | – | Nc1c(F)c(N2CC(N)C3(CC3)C2)c(F)c2c1c(=O)c(C(=O)O)cn2[C@@H]1C[C@@H]1F (relative stereo) [Compound 56b, 5-Amino-7-(7-amino-5-azaspiro[2,4]heptan-5-yl)-6,8-difluoro-1-(1,2-cis-2-fluoro-1-cyclopropyl) 4-oxo-1,4-dihydroquinoline-3-carboxylic acid]
<0.1 | <0.1 | 0.10 | <0.1 | <0.1 | <0.1 | <0.1 | <0.1 | – | – | – | – | – | – | NC1CN(c2c(F)cc3c(=O)c(C(=O)O)cn([C@@H]4C[C@@H]4F)c3c2Cl)CC12CCC2 (relative stereo) [Compound 58b, (−)-7-(8-amino-6-azaspiro[3.4]octane-6-yl)-8-chloro-6-fluoro-1-(1,2-cis-2-fluoro-1-cyclopropyl)-1,4-dihydro-4-oxoquinoline-3-carboxylic acid]
<0.1 | <0.1 | – | – | – | – | – | – | 0.39 (≈ 0.952 µM) | 0.1 (≈ 0.244 µM) | < 0.1 | 0.2 (≈ 0.488 µM) | 0.1 (≈ 0.244 µM) | 0.39 (≈ 0.952 µM) | NC1CN(c2c(F)cc3c(=O)c(C(=O)O)cn(C4CC4F)c3c2Cl)CC12CC2 (single isomer, unassigned) [Compound 26aa]
<0.1 | <0.1 | 0.20 | <0.1 | <0.1 | 0.10 | <0.1 | 0.20 | – | – | – | – | – | – | NC1CN(c2c(F)cc3c(=O)c(C(=O)O)cn(C4CC4F)c3c2Cl)CC12CC2 (single isomer, unassigned) [Compound 26ab]
